Read-outs that look alike come from different tables or passages of the source.
Legend:
Format in all cases: cell-based
[1] = system: HCT-116 (human colorectal cancer cell line); test: MTT cytotoxicity assay, HCT-116 under anoxia or normoxia; settings: for HCT-116 Value = IC50(normoxia)/IC50(anoxia): HCT-116, activity promotion under anoxia, >100 set as 100; for IC50: Homo sapiens
Protocol: (§1) We focused our attention on the cytotoxicity of the four series of newly-synthesized compounds (10a–e, 11a–e, 12a–e, and 13a–e) under normoxic or anoxic conditions.
(§2) The data was calculated by the Logit method and presented as IC50 values in Table 1.
(§3) All of the newly-synthesized compounds were screened for in vitro cytotoxicity by MTT assay. The exponentially-growing MRC-5, HCT-116, MDA-MB-231, and HT-29 cells were allowed to grow until 80% confluency, the culture medium was discarded, digested with trypsin, separated centrifugally, then fresh culture medium was added and blown gently into single-cell suspension. Then, the cell suspension was seeded into each well of 96-well microculture plates at a concentration of 1.5 × 10^3–3 × 10^3 cells/well.
(§4) The cells were incubated with 50 μL of 2 mg/mL MTT solution for 4 h in a humidified incubator. The supernatant was discarded, and the media were then replaced with 200 μL of dimethyl sulfoxide to dissolve the purple colored formazan crystals formed in the wells, and their absorbances were measured at 492 nm with a microplate reader (Synergy-HT, BioTek Instruments, Winooski, VT, USA); 200 μL DMSO was set as the blank control.
(§5) The anoxia condition was achieved by placing cells in a sealed hypoxia incubator chamber (Catalog Number 27310, Stemcell Technologies, Inc., Vancouver, BC, Canada) filled with 5% CO2 and 95% N2.

[2] = system: MRC-5 (human fetal lung fibroblast cells, normal lung cell); test: MTT cytotoxicity assay, MRC-5 normal cells; settings: MRC5, MRC-5, normoxia, 96 h MTT
Protocol: as §1, §2, §3, §4

[3] = system: HT-29 (human colon carcinoma cell line, overexpresses high amounts of CA IX); test: MTT cytotoxicity assay, HT-29 under anoxia or normoxia; settings: for HT-29 Value = IC50(normoxia)/IC50(anoxia): HT-29, activity promotion under anoxia; for IC50: Homo sapiens
Protocol: as §1, §2, §3, §4, §5

[4] = system: MDA-MB-231 (human breast carcinoma cell line, CA IX negative); test: MTT cytotoxicity assay, MDA-MB-231 under anoxia or normoxia; settings: for IC50: Homo sapiens; for MDA-MB-231 Value = IC50(normoxia)/IC50(anoxia): MDA-MB-231, activity promotion under anoxia, >100 set as 100
Protocol: as §1, §2, §3, §4, §5

[5] = HCT-116, anoxia 24 h then normoxia 72 h, MTT, read-out: IC50 HCT-116 Anoxia
[6] = HCT-116, normoxia, 96 h MTT, read-out: IC50 HCT-116 Normoxia
[7] = HT-29, anoxia 24 h then normoxia 72 h, MTT, read-out: IC50 HT-29 Anoxia
[8] = HT-29, normoxia, 96 h MTT, read-out: IC50 HT-29 Normoxia
[9] = MDA-MB-231, anoxia 24 h then normoxia 72 h, MTT, read-out: IC50 MDA-MB-231 Anoxia
[10] = MDA-MB-231, normoxia, 96 h MTT, read-out: IC50 MDA-MB-231 Normoxia

Compound	HCT-116 Value = IC50(normoxia)/IC50(anoxia) [1]	IC50 [1, 5]	IC50 [1, 6]	IC50 [2]	HT-29 Value = IC50(normoxia)/IC50(anoxia) [3]	IC50 [3, 7]	IC50 [3, 8]	IC50 [4, 9]	IC50 [4, 10]	MDA-MB-231 Value = IC50(normoxia)/IC50(anoxia) [4]
Cc1cc(=O)oc2cc(OCCn3cc(CO[C@H]4O[C@@H]5O[C@@]6(C)CC[C@H]7[C@H](C)CC[C@@H]([C@H]4C)[C@@]57OO6)nn3)ccc12 [10a, 7-(2-(4-(10β-Dihydroartemisininoxy)methyl)-1H-1,2,3-triazol-1-yl)ethoxy-4-methyl-2H-chromen-2-one]	0.86	11.9 µM	10.3 µM	28 µM	8.35	1.47 µM	12.3 µM	36.7 µM	52 µM	1.42
CCOC(=O)c1cc2ccc(OCCn3cc(CO[C@H]4O[C@@H]5O[C@@]6(C)CC[C@H]7[C@H](C)CC[C@@H]([C@H]4C)[C@@]57OO6)nn3)cc2oc1=O [10e, Ethyl 2-oxo-7-(2-(4-(10β-dihydroartemisininoxy)methyl)-1H-1,2,3-triazol-1-yl)ethoxy-2H-chromene-3-carboxylate]	1.79	28.8 µM	51.5 µM	52.5 µM	3.66	8.69 µM	31.8 µM	91.2 µM	> 100 µM	
Cc1cc(=O)oc2cc(OCCCn3cc(CO[C@H]4O[C@@H]5O[C@@]6(C)CC[C@H]7[C@H](C)CC[C@@H]([C@H]4C)[C@@]57OO6)nn3)ccc12 [11a, 7-(3-(4-(10β-Dihydroartemisininoxy)methyl)-1H-1,2,3-triazol-1-yl)propoxy-4-methyl-2H-chromen-2-one]	1.36	6.02 µM	8.21 µM	15.5 µM	7.17	1.22 µM	8.78 µM	17.8 µM	51.2 µM	2.87
Cc1c(C)c2ccc(OCCn3cc(CO[C@H]4O[C@@H]5O[C@@]6(C)CC[C@H]7[C@H](C)CC[C@@H]([C@H]4C)[C@@]57OO6)nn3)cc2oc1=O [10c, 7-(2-(4-(10β-Dihydroartemisininoxy)methyl)-1H-1,2,3-triazol-1-yl)ethoxy-3,4-dimethyl-2H-chromen-2-one]	0.95	6.89 µM	6.51 µM	22.3 µM	11.50	1.82 µM	21 µM	33.2 µM	32.3 µM	0.97
C[C@H]1[C@@H](OCc2cn(CCOc3ccc4c(C(F)(F)F)cc(=O)oc4c3)nn2)O[C@@H]2O[C@@]3(C)CC[C@H]4[C@H](C)CC[C@@H]1[C@@]24OO3 [10b, 7-(2-(4-(10β-Dihydroartemisininoxy)methyl)-1H-1,2,3-triazol-1-yl)ethoxy-4-trifluoromethyl-2H-chromen-2-one]	0.78	8.31 µM	6.46 µM	33.6 µM	4.99	2.18 µM	10.9 µM	24.7 µM	28 µM	1.13
Cc1c(Cl)c(=O)oc2cc(OCCCn3cc(CO[C@H]4O[C@@H]5O[C@@]6(C)CC[C@H]7[C@H](C)CC[C@@H]([C@H]4C)[C@@]57OO6)nn3)ccc12 [11d, 3-Chloro-7-(3-(4-(10β-dihydroartemisininoxy)methyl)-1H-1,2,3-triazol-1-yl)propoxy-4-methyl-2H-chromen-2-one]	1.28	6 µM	7.68 µM	> 100 µM	2.90	1.34 µM	3.9 µM	22.5 µM	51.6 µM	2.29
Cc1c(Cl)c(=O)oc2cc(OCCn3cc(CO[C@H]4O[C@@H]5O[C@@]6(C)CC[C@H]7[C@H](C)CC[C@@H]([C@H]4C)[C@@]57OO6)nn3)ccc12 [10d, 3-Chloro-7-(2-(4-(10β-dihydroartemisininoxy)methyl)-1H-1,2,3-triazol-1-yl)ethoxy-4-methyl-2H-chromen-2-one]	0.79	5.3 µM	4.18 µM	50.7 µM		0.05 µM	17.7 µM	29.2 µM	61.4 µM	2.10
Cc1c(C)c2ccc(OCCCn3cc(CO[C@H]4O[C@@H]5O[C@@]6(C)CC[C@H]7[C@H](C)CC[C@@H]([C@H]4C)[C@@]57OO6)nn3)cc2oc1=O [11c, 7-(3-(4-(10β-Dihydroartemisininoxy)methyl)-1H-1,2,3-triazol-1-yl)propoxy-3,4-dimethyl-2H-chromen-2-one]	1.27	16.6 µM	21 µM	60.9 µM	0.83	23.2 µM	19.3 µM	39.8 µM	56 µM	1.41
C[C@H]1[C@@H](OCc2cn(CCCOc3ccc4c(C(F)(F)F)cc(=O)oc4c3)nn2)O[C@@H]2O[C@@]3(C)CC[C@H]4[C@H](C)CC[C@@H]1[C@@]24OO3 [11b, 7-(3-(4-(10β-Dihydroartemisininoxy)methyl)-1H-1,2,3-triazol-1-yl)propoxy-4-trifluoromethyl-2H-chromen-2-one]	1.38	9.33 µM	12.9 µM	43.8 µM	1.63	5.06 µM	8.23 µM	36.9 µM	72.6 µM	1.97
COc1cccc2c1C(=O)c1c(O)c3c(c(O)c1C2=O)C[C@@](O)(C(=O)CO)C[C@@H]3O[C@H]1C[C@H](N)[C@H](O)[C@H](C)O1 [DOX, doxorubicin, reference compound]	0.39	0.15 µM	0.06 µM	0.34 µM	1.74	0.05 µM	0.09 µM	0.37 µM	0.27 µM	0.73
CCOC(=O)c1cc2ccc(OCCCn3cc(CO[C@H]4O[C@@H]5O[C@@]6(C)CC[C@H]7[C@H](C)CC[C@@H]([C@H]4C)[C@@]57OO6)nn3)cc2oc1=O [11e, Ethyl 2-oxo-7-(3-(4-(10β-dihydroartemisininoxy)methyl)-1H-1,2,3-triazol-1-yl)propoxy-2H-chromene-3-carboxylate]	1.57	28.1 µM	44.1 µM	38.7 µM	4.25	12 µM	51.1 µM	50.7 µM	121 µM	2.38

Reference: article PMC6273433, “Design, Synthesis and Cytotoxicity of Novel Dihydroartemisinin-Coumarin Hybrids via Click Chemistry” (Molecules, 2016)
